This is an account of results in patent publication US4376076A, “Bis-esters of 1,1-alkanediols with 6-beta-hydroxymethylpenicillanic acid 1,1-dioxide” (priority 1982, dated 1983).

Experiment [1] relates to a variety of microorganisms. In words: Enhancement of ampicillin effectiveness (MIC of combinations), overall statement. It counts as cell-based. The following applies: 1:1 with ampicillin; summary of Table II. Here is the method:
The procedure which is followed is the one recommended by the International Collaborative Study on Antibiotic Sensitivity Testing [Ericcson and Sherris, Acta. Pathologica et Microbiologia Scandinav, Supp. 217, Sections A and B: 64-68 (1971)], and employs brain heart infusion (BHI) agar and the inocula replicating device. Overnight growth tubes are diluted 100 fold for use as the standard inoculum (20,000-10,000 cells in approximately 0.002 ml are placed on the agar surface; 20 ml of BHI agar/dish). Twelve 2 fold dilutions of the test compound are employed, with initial concentration of the test drug being 200 mcg/ml. Single colonies are disregarded when reading tubes after 18 hrs. at 37° C. The susceptibility (MIC) of the test organism is accepted as the lowest concentration of compound capable of producing complete inhibition of growth as judged by the naked eye. The manner in which the said compounds of the formula (B) increase the effectiveness of a beta-lactam antibiotic can be appreciated by reference to experiments in which the MIC of a given antibiotic alone, and a compound of the formula (6) alone, are measured. […] The MIC values of combinations are measured using the method described by Barry and Sabath in "Manual of Clinical Microbiology", edited by Lenette, Spaulding and Truant, 2nd Edition, 1974, American Society for Microbiology. […]

Experiment [2] deals with Pseudomonas aeruginosa 52A104 cell free beta-lactamase. In words: Inhibition of cell-free beta-lactamase (microiodometric), P. aeruginosa 52A104. It counts as biochemical. As to conditions: for beta-lactamase inhibiting activity, in words: Pseudomonas aeruginosa; for % Inhibition Beta-Lactam Hydrolysis: Penicillin G 33 μM, pH 6.5, 37° C. Here is the method:
The compounds of the present invention are thus evaluated in vitro by the ability of the compound (13) to inhibit the hydrolysis of certain beta-lactam antibiotics by beta-lactamase enzymes. The hydrolysis of ampicillin and penicillin G was determined by the microiodometric method of Novick [Biochem, J. 83, 236 (1962)]. Conditions for this assay are 0.5 M potassium phosphate, pH 6.5 and 37° C. Reactions were initiated by the addition of the cell-free beta-lactamase, except in the case of preincubation experiments in which the inhibitor and enzyme were incubated together in the assay mixture for 10 minutes before initiation of the reaction by addition of substrate. […]
(§1) Cell-free extracts were prepared by sonic treatment (using three 30-s bursts at 4° C. except for S. aureus, which was broken with a French press) of cultures grown in brain heart infusion on a rotary shaker incubator. For the S. aureus, P. aeruginose, and E. cloacae strains, de novo synthesis of beta-lactamase was induced by growing a log-phase culture in the presence of a sublethal concentration of penicillin G at 100, 1,000, and 300 microg./ml, respectively, for 2.5 hr.

The subject of experiment [3] is Enterobacter cloacae 67B009 cell free beta-lactamase. In words: Inhibition of cell-free beta-lactamase (microiodometric), E. cloacae 67B009. It counts as biochemical. The following applies: for beta-lactamase inhibiting activity, in words: Enterobacter cloacae; for % Inhibition Beta-Lactam Hydrolysis: Penicillin G 33 μM. Here is the method:
The compounds of the present invention are thus evaluated in vitro by the ability of the compound (13) to inhibit the hydrolysis of certain beta-lactam antibiotics by beta-lactamase enzymes. The hydrolysis of ampicillin and penicillin G was determined by the microiodometric method of Novick [Biochem, J. 83, 236 (1962)]. Conditions for this assay are 0.5 M potassium phosphate, pH 6.5 and 37° C. Reactions were initiated by the addition of the cell-free beta-lactamase, except in the case of preincubation experiments in which the inhibitor and enzyme were incubated together in the assay mixture for 10 minutes before initiation of the reaction by addition of substrate. With the cell-free extracts of Staphylococcus aureus, Escherichia coli, Klebsiella pneumoniae and Pseudomonas aeruginosa, the substrate was ampicillin at 33 micro M (13 microg./ml).
as §1

Experiment [4] has as its system Enterobacter cloacae 67B009. The experiment is described as follows: MIC on BHI agar, alone and 1:1 with ampicillin. It counts as cell-based. As to conditions: for MIC: inhibitor alone, 18 hrs. at 37° C. Here is the method:
(§2) The procedure which is followed is the one recommended by the International Collaborative Study on Antibiotic Sensitivity Testing [Ericcson and Sherris, Acta. Pathologica et Microbiologia Scandinav, Supp. 217, Sections A and B: 64-68 (1971)], and employs brain heart infusion (BHI) agar and the inocula replicating device. Overnight growth tubes are diluted 100 fold for use as the standard inoculum (20,000-10,000 cells in approximately 0.002 ml are placed on the agar surface; 20 ml of BHI agar/dish). Twelve 2 fold dilutions of the test compound are employed, with initial concentration of the test drug being 200 mcg/ml. Single colonies are disregarded when reading tubes after 18 hrs. at 37° C. […] These MIC's are then compared with the MIC values obtained with a combination of the given antibiotic and the compound of the formula (6). […] The MIC values of combinations are measured using the method described by Barry and Sabath in "Manual of Clinical Microbiology", edited by Lenette, Spaulding and Truant, 2nd Edition, 1974, American Society for Microbiology.
(§3) For purposes of comparison data on the earlier beta-lactamase inhibitor, penicillanic acid 1,1-dioxide, are included.

Experiment [5] deals with Staphylococcus aureus 01A400. In words: MIC on BHI agar, alone and 1:1 with ampicillin. Format: cell-based. As to conditions: inhibitor alone; 18 hrs. at 37° C. Here is the method:
as §2, §3

For another experiment, the system named is Proteus morgani 57G001. The experiment is described as follows: MIC on BHI agar, alone and 1:1 with ampicillin. Format: cell-based. The following applies: inhibitor alone; 18 hrs. at 37° C. Here is the method: as §2, §3
In experiment [6] the test system is Serratia marcescens 63A095. The experiment is described as follows: MIC on BHI agar, alone and 1:1 with ampicillin. Format: cell-based. The following applies: inhibitor alone; 18 hrs. at 37° C. Here is the method:
as §2, §3

Experiment [7] concerns Staphylococcus aureus 01A005. In words: MIC on BHI agar, alone and 1:1 with ampicillin. Format: cell-based. As to conditions: inhibitor alone; 18 hrs. at 37° C. The method, then: as §2, §3
The test system of experiment [8] is Citrobacter diversus 70C031. The experiment is described as follows: MIC on BHI agar, alone and 1:1 with ampicillin. It counts as cell-based. As to conditions: inhibitor alone; 18 hrs. at 37° C. The method, then: as §2, §3
Experiment [9] concerns Escherichia coli-R 51A129. In words: MIC on BHI agar, alone and 1:1 with ampicillin. It counts as cell-based. As to conditions: for MIC: inhibitor alone, 18 hrs. at 37° C. Here is the method:
as §2, §3

Experiment [10] has as its system Klebsiella pneumoniae 53A079. The experiment is described as follows: MIC on BHI agar, alone and 1:1 with ampicillin. It counts as cell-based. The following applies: for MIC: inhibitor alone, 18 hrs. at 37° C. Here is the method:
as §2, §3

The subject of experiment [11] is Pseudomonas aeruginosa 52A104. In words: MIC on BHI agar, alone and 1:1 with ampicillin. Format: cell-based. As to conditions: for MIC: inhibitor alone, 18 hrs. at 37° C. The method, then:
as §2, §3

A further experiment has as its system Escherichia coli 51A266. In words: MIC on BHI agar, alone and 1:1 with ampicillin. Format: cell-based. As to conditions: for Response: 1:1 with ampicillin (E); for MIC: inhibitor alone, 18 hrs. at 37° C. Here is the method: as §2, §3
[12] abbreviates: inhibitor 1.0 μM, pH 6.5, 37° C.
The mark [13] stands for this setting: inhibitor 16.5 μM, pH 6.5, 37° C.
Where [14] appears, read: inhibitor 66 μM, pH 6.5, 37° C.

With `CC1(C)[C@H](C(=O)O)N2C(=O)[C@@H](CO)[C@H]2S1(=O)=O` [compound (6), 6-beta-(hydroxymethyl)penicillanic acid 1,1-dioxide], the “enhanced spectrum and potency with ampicillin, in words” value in experiment [1] is on record as “synergy or pronounced synergy”.
Turning to `CC1(C)[C@H](C(=O)O)N2C(=O)[C@@H](CO)[C@H]2S1(=O)=O` [A, 6-beta-(Hydroxymethyl)penicillanic acid 1,1-dioxide], the “beta-lactamase inhibiting activity, in words” value in experiment [2] and in experiment [3] was “Especially noteworthy” throughout. Also, the “% Inhibition Beta-Lactam Hydrolysis” value was 21.7% in experiment [2] (inhibitor 1.0 μM); 93.4% in [2] (inhibitor 16.5 μM); 98.8% in experiment [2] (inhibitor 66 μM); 11.4% in [3] (setting [12]); 52.0% in [3] (setting [13]); 77.0% in experiment [3] (setting [14]).
The MIC is the smallest concentration in the dilution series that meets the test's criterion for growth inhibition. On to `CC1(C)[C@H](C(=O)O)N2C(=O)[C@@H](CO)[C@H]2S1(=O)=O` [C, 6-beta-(Hydroxymethyl)penicillanic acid 1,1-Dioxides], for which the MIC is 100 µg/mL in experiment [4]; above 200 µg/mL in experiment [5]; above 200 µg/mL in the experiment on Proteus morgani 57G001; 200 µg/mL in experiment [6]; above 200 µg/mL in experiment [7]; 200 µg/mL in experiment [8]. Also, the MIC in experiment [9] was 50 µg/mL; in experiment [10] it was 50 µg/mL; in [11] it was above 200 µg/mL; in the experiment on Escherichia coli 51A266 it was 50 µg/mL. Besides, the Response entry was “S” in [9] (1:1 with ampicillin (E)), “S” in [11] (1:1 with ampicillin (E)) and “N” in the experiment on Escherichia coli 51A266.
In the case of `CC1(C)[C@H](C(=O)O)N2C(=O)C[C@H]2S1(=O)=O` [B, Penicillanic acid 1,1-dioxide], the Response result in [4] (1:1 with ampicillin (E)) is “S”; in experiment [10] (1:1 with ampicillin (E)), “S”; with Escherichia coli 51A266 it was “N”. In addition, the MIC was determined as 100 µg/mL in [4]; 200 µg/mL in [5]; 200 µg/mL with Proteus morgani 57G001; 200 µg/mL in experiment [6]; 100 µg/mL in [7]; 200 µg/mL in experiment [8]. In addition, the MIC in experiment [9] is 200 µg/mL; in experiment [10], 50 µg/mL; in experiment [11], above 200 µg/mL; in the experiment with Escherichia coli 51A266, 25 µg/mL. Further, the “beta-lactamase inhibiting activity, in words” value in [2] and in experiment [3] was “at best a low order of activity” throughout. The “% Inhibition Beta-Lactam Hydrolysis” value in [2] (inhibitor 66 μM) amounted to 0%; in [3] (setting [12]), 0%; in [3] (setting [13]), 0%; in [3] (setting [14]) it was 0%; in experiment [3] (inhibitor 66 μM, preincubation of inhibitor and enzyme 10 minutes), 26%.
